Data taken from article PMC10584170, “Machine learning-based phenotypic imaging to characterise the targetable biology of Plasmodium falciparum male gametocytes for the development of transmission-blocking antimalarials” (PLOS Pathogens, 2023).
Where two headings read alike, the source gives them in different places.

Experiments:
[1] = system: P. falciparum gametocytes; set-up: method as in Almela et al 2015; settings: ref Almela et al 2015; read-out: Pf Gametocyte viability (ATP) GC-ATP IC50; cited from earlier work
HepG2 cells [2] = assay: HepG2 cytotoxicity counter-screen; settings: for Mean TOX: mean of the HepG2 TOX50 values; for Tox50: cytotoxic activity against HepG2 cells
[3] = system: P. falciparum male gametocytes; assay: P. falciparum Dual Gamete Formation Assay (PfDGFA), male readout (exflagellation); format: cell-based, Plasmodium falciparum NF54; settings: for Selectivity Ratio M: HepG2 Tox50 versus male IC50
Outline: (§1)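 Male and female gamete formation were quantified by microscopy image analysis following 24 h incubation of mature NF54 gametocytes with compound and activation at 28°C with xanthurenic acid.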

HepG2 cells [4] = settings: cited from earlier work
[5] = system: P. falciparum female gametocytes; assay: P. falciparum Dual Gamete Formation Assay (PfDGFA), female readout (Pfs25-positive female gametes); format: cell-based, Plasmodium falciparum NF54; settings: for Selectivity ratio F: HepG2 Tox50 versus female IC50
Outline: as §1

[6] = system: P. falciparum female gametocytes; set-up: method as in Miguel-Blanco et al 2017; settings: ref Miguel-Blanco et al 2017; read-out: Pf female gametogenesis FGAA IC50; cited from earlier work
[7] = system: P. falciparum female gametocytes; assay: P. falciparum Female Gametocyte Activation Assay (PfFGAA); format: cell-based, Plasmodium falciparum
Source text: (§2) Fig 1 The activity of TCAMS compound identified in the Pf DGFA screen. (A) 85 molecules were confirmed active in the Pf DGFA. 58 were previously identified in one or more transmission-blocking screens. […] No molecule was identified with >4.7-fold greater activity against female gametocytes. Abbreviations (IC50 = concentration giving 50% inhibition, PbODA = P. berghei Ookinete Development Assay, PfDGFA = P. falciparum Dual Gamete Formation Assay, PfFGAA = P. falciparum Female Gametocyte Activation Assay, PfGCT = P. falciparum Gametocyte Viability ATP Assay).

[8] = system: P. falciparum gametocytes; assay: P. falciparum Gametocyte Viability ATP Assay (PfGCT); format: cell-based, Plasmodium falciparum
Source text: as §2

[9] = system: P. berghei ookinete development; assay: P. berghei Ookinete Development Assay (PbODA); format: cell-based, Plasmodium berghei; settings: Mean TOX HepG2 over Pb ODA value; GREEN = >10-fold; RED = <10-fold
Source text: as §2

[10] = this study, read-out: Pf DGFA IC50 MALE
[11] = this study, read-out: Pf DGFA IC50 FEM
[12] = Mean TOX HepG2 over FGAA IC50, GREEN = >10-fold, RED = <10-fold
[13] = Mean TOX HepG2 over GC-ATP IC50, GREEN = >10-fold, RED = <10-fold
[14] = Mean TOX HepG2 over DGFA IC50 MALE, GREEN = >10-fold, RED = <10-fold
[15] = Plasmodium falciparum, PfDGFA, 24 h incubation with gametocytes before induction, exflagellation readout, read-out: Male IC50
[16] = HepG2 value reported with the FGAA screen, ref Miguel-Blanco et al 2017
[17] = HepG2 value reported with the GC-ATP screen, ref Almela et al 2015
[18] = Mean TOX HepG2 over DGFA IC50 FEM, GREEN = >10-fold, RED = <10-fold
[19] = Plasmodium falciparum, PfDGFA, 24 h incubation with gametocytes before induction, female gamete readout, read-out: Female IC50
[20] = Plasmodium falciparum, 2µM, 24h preincubation with gametocytes, average of replicates, read-out: Average inhibition male (%)
[21] = Plasmodium falciparum, 2µM, 24h preincubation with gametocytes, replicate R1, read-out: % inhibition male (individual replicates) R1
[22] = Plasmodium falciparum, 2µM, 24h preincubation with gametocytes, replicate R2, read-out: % inhibition male (individual replicates) R2
[23] = Plasmodium falciparum, 2µM, 24h preincubation with gametocytes, replicate R3, read-out: % inhibition male (individual replicates) R3
[24] = Plasmodium falciparum, 2µM, 24h preincubation with gametocytes, replicate R4, read-out: % inhibition male (individual replicates) R4
[25] = Plasmodium falciparum, 2µM, 24h preincubation with gametocytes, average of replicates, read-out: Average inhibition female (%)
[26] = Plasmodium falciparum, 2µM, 24h preincubation with gametocytes, replicate R1, read-out: % inhibition female (individual replicates) R1
[27] = Plasmodium falciparum, 2µM, 24h preincubation with gametocytes, replicate R2, read-out: % inhibition female (individual replicates) R2
[28] = Plasmodium falciparum, 2µM, 24h preincubation with gametocytes, replicate R3, read-out: % inhibition female (individual replicates) R3
[29] = Plasmodium falciparum, 2µM, 24h preincubation with gametocytes, replicate R4, read-out: % inhibition female (individual replicates) R4

SMILES: [O-][s+]1c(Cl)c(-c2ccc(Cl)cc2)c2ccc(Cl)cc21 (centres unmarked) [TC66]
- IC50 [1]: 20 nM
- Mean TOX (HepG2 cells [2]): 13.92 µM
- Cytotox ratio Pf Male [3]: 99.4
- IC50 [3, 10]: 140 nM
- FGAA TOX50 HepG2 (HepG2 cells [4]): 11.35 µM
- GC-ATP TOX50 HepG2 (HepG2 cells [4]): 12.8 µM
- Cytotox ratio Pf Female [5]: 99.4
- IC50 [5, 11]: 140 nM
- IC50 [6]: 40 nM
- Cytotox ratio Pf FGAA [7, 12]: 347.9
- Cytotox ratio Pf GC-ATP [8, 13]: 695.8

SMILES: O=C(O)CCSSc1cccc[n+]1[O-] [TC78]
- IC50 [1]: 270 nM
- Mean TOX (HepG2 cells [2]): 22.16 µM
- Cytotox ratio Pf Male [3]: 92.3
- IC50 [3, 10]: 240 nM
- FGAA TOX50 HepG2 (HepG2 cells [4]): 19.05 µM
- GC-ATP TOX50 HepG2 (HepG2 cells [4]): 7.8 µM
- ODA TOX50 HepG2 (HepG2 cells [4]): 30.903 µM
- Cytotox ratio Pf Female [5]: 85.2
- IC50 [5, 11]: 260 nM
- IC50 [6]: 40 nM
- Cytotox ratio Pf FGAA [7, 12]: 554.1
- Cytotox ratio Pf GC-ATP [8, 13]: 82.1
- Cytotox ratio Pb Ookinete [9]: 13258.7

SMILES: COc1cc2nc(N3CCN(c4nc(N)c5cc(OC)c(OC)cc5n4)CC3)nc(N)c2cc1OC [TCMDC-123865]
- IC50 [1]: 260 nM
- Tox50 (HepG2 cells [2]): 41.34 µM
- Mean TOX (HepG2 cells [2]): 39.61 µM
- HitlevelM ([3]; 2µM, 24h preincubation, number of replicates with >50% inhibition in the male readout): 3
- Selectivity Ratio M [3]: 28.11
- Cytotox ratio Pf Male [3, 14]: 26.9
- inhibition at 2 µM ([3]; Plasmodium falciparum, 2µM, 24h preincubation with gametocytes prior to induction of gametogenesis, average of replicates, read-out: Average inhibition male (%)): 50.1%
- inhibition at 2 µM ([3]; Plasmodium falciparum, 2µM, 24h preincubation with gametocytes prior to induction of gametogenesis, replicate R1, read-out: % inhibition male (individual replicates) R1): 50.8%
- inhibition at 2 µM ([3]; Plasmodium falciparum, 2µM, 24h preincubation with gametocytes prior to induction of gametogenesis, replicate R2, read-out: % inhibition male (individual replicates) R2): 50.6%
- inhibition at 2 µM ([3]; Plasmodium falciparum, 2µM, 24h preincubation with gametocytes prior to induction of gametogenesis, replicate R3, read-out: % inhibition male (individual replicates) R3): 23.6%
- inhibition at 2 µM ([3]; Plasmodium falciparum, 2µM, 24h preincubation with gametocytes prior to induction of gametogenesis, replicate R4, read-out: % inhibition male (individual replicates) R4): 75.6%
- IC50 [3, 15]: 1470 nM
- FGAA TOX50 HepG2 (HepG2 cells [4]; [16]): 52.49 µM
- GC-ATP TOX50 HepG2 (HepG2 cells [4]; [17]): 25 µM
- HitlevelF ([5]; 2µM, 24h preincubation, number of replicates with >50% inhibition in the female readout): 0
- Selectivity ratio F [5]: 20.76
- Cytotox ratio Pf Female [5, 18]: 19.9
- inhibition at 2 µM ([5]; Plasmodium falciparum, 2µM, 24h preincubation with gametocytes prior to induction of gametogenesis, average of replicates, read-out: Average inhibition female (%)): 2.6%
- inhibition at 2 µM ([5]; Plasmodium falciparum, 2µM, 24h preincubation with gametocytes prior to induction of gametogenesis, replicate R1, read-out: % inhibition female (individual replicates) R1): 18.2%
- inhibition at 2 µM ([5]; Plasmodium falciparum, 2µM, 24h preincubation with gametocytes prior to induction of gametogenesis, replicate R2, read-out: % inhibition female (individual replicates) R2): 4%
- inhibition at 2 µM ([5]; Plasmodium falciparum, 2µM, 24h preincubation with gametocytes prior to induction of gametogenesis, replicate R3, read-out: % inhibition female (individual replicates) R3): -8.7%
- inhibition at 2 µM ([5]; Plasmodium falciparum, 2µM, 24h preincubation with gametocytes prior to induction of gametogenesis, replicate R4, read-out: % inhibition female (individual replicates) R4): -3.2%
- IC50 [5, 19]: 1990 nM
- IC50 [6]: 580 nM
- Cytotox ratio Pf FGAA ([7]; human): 68.3
- Cytotox ratio Pf GC-ATP ([8]; human): 152.3

SMILES: CN(C)CCNCc1cccc(-c2ccc3c(Nc4ccc(Oc5ccccn5)cc4)ccnc3c2)c1 [TCMDC-138493]
- IC50 [1]: 220 nM
- Tox50 (HepG2 cells [2]): 11.38 µM
- Mean TOX (HepG2 cells [2]): 6.62 µM
- Selectivity Ratio M [3]: 14.59
- Cytotox ratio Pf Male [3, 14]: 8.5
- inhibition at 2 µM [3, 20]: 96.2%
- inhibition at 2 µM [3, 21]: 93.5%
- inhibition at 2 µM [3, 22]: 99.2%
- inhibition at 2 µM [3, 23]: 91.9%
- inhibition at 2 µM [3, 24]: 100%
- IC50 [3, 15]: 780 nM
- FGAA TOX50 HepG2 (HepG2 cells [4]; [16]): 3.98 µM
- GC-ATP TOX50 HepG2 (HepG2 cells [4]; [17]): 4.49 µM
- Selectivity ratio F [5]: 2.14
- Cytotox ratio Pf Female [5, 18]: 1.2
- inhibition at 2 µM [5, 25]: 65.4%
- inhibition at 2 µM [5, 26]: 58.7%
- inhibition at 2 µM [5, 27]: 66.3%
- inhibition at 2 µM [5, 28]: 72.6%
- inhibition at 2 µM [5, 29]: 64.1%
- IC50 [5, 19]: 5320 nM
- IC50 [6]: 820 nM
- Cytotox ratio Pf FGAA ([7]; human): 4.9
- Cytotox ratio Pf GC-ATP ([8]; human): 20.4

SMILES: CN1CCN(CCCNCc2cccc(-c3ccc(CNCCc4ccccc4)cc3)c2)CC1.O=C(O)C(F)(F)F [TCMDC-140643]
- IC50 [1]: 410 nM
- Tox50 (HepG2 cells [2]): 13.04 µM
- Mean TOX (HepG2 cells [2]): 13.07 µM
- Selectivity Ratio M [3]: 18.8
- Cytotox ratio Pf Male [3, 14]: 18.9
- inhibition at 2 µM [3, 20]: 91.2%
- inhibition at 2 µM [3, 21]: 95%
- inhibition at 2 µM [3, 22]: 75.6%
- inhibition at 2 µM [3, 23]: 95.7%
- inhibition at 2 µM [3, 24]: 98.5%
- IC50 [3, 15]: 690 nM
- FGAA TOX50 HepG2 (HepG2 cells [4]; [16]): 7.92 µM
- GC-ATP TOX50 HepG2 (HepG2 cells [4]; [17]): 18.24 µM
- Selectivity ratio F [5]: 1.63
- Cytotox ratio Pf Female [5, 18]: 1.6
- inhibition at 2 µM [5, 25]: 34.1%
- inhibition at 2 µM [5, 26]: 40.2%
- inhibition at 2 µM [5, 27]: 30.4%
- inhibition at 2 µM [5, 28]: 25.8%
- inhibition at 2 µM [5, 29]: 40%
- IC50 [5, 19]: 7980 nM
- IC50 [6]: 1910 nM
- Cytotox ratio Pf FGAA ([7]; human): 6.8
- Cytotox ratio Pf GC-ATP ([8]; human): 31.9
